Reference: patent US9980943B2, “Methods of treating muscular dystrophy” (BOARD OF REGENTS OF THE NEVADA SYSTEM OF HIGHER EDUCATION, …, priority 2013, dated 2018)
Read-outs that look alike come from different tables or passages of the source.

Tested on: α7 integrin (LacZ reporter in α7LacZ+/− myoblasts)
Experiment: qHTS of the LOPAC library and MLSMR (online screen, α7LacZ+/− myoblasts)
Conditions: for activation at 0.307 µM / activation at 1.53 µM / activation at 7.66 µM / activation at 38.3 µM / Emax / EC50: Mus musculus, Myoblast; for activation at 0.307 µM: read-out: Activity at 0.307 uM [%] **; for activation at 1.53 µM: read-out: Activity at 1.530 uM [%] **; for activation at 7.66 µM: read-out: Activity at 7.660 uM [%] **; for activation at 38.3 µM: read-out: Activity at 38.30uM [%] **; for EC50: read-out: Fit LogAC50 (converted); for Score: Table 8 Compound data
[1] = 48 h, read-out: Fit Infinite Activity [%]

Compound | activation at 0.307 µM (48 h) | activation at 1.53 µM (48 h) | activation at 7.66 µM (48 h) | activation at 38.3 µM (48 h) | Emax [1] | EC50 | Emax (read-out: Max Response [%]) | Score
O=C(Nc1ccccc1F)c1ccc([N+](=O)[O-])s1 [Compound 81] | 1.83% | 5.12% | 24.3% | 215% | 216% | 12.6 µM | 215% | 
C/N=C(\S)N1CCC(NC(=O)C(Cc2ccc(F)cc2)NC(C)=O)CC1 (stereo not drawn) [Compound 82] | 0% | 23.1% | 63.7% | 84.7% | 90% | 3.16 µM | 84.7% | 
CCS(=O)(=O)N1CCCC(C(=O)c2ccc(OC)cc2C)C1 (stereo not drawn) [Compound 83] | -13.5% | -10.6% | 41.5% | 149% | 162% | 11.2 µM | 149% | 
CCCS(=O)(=O)N1CCCC(C(=O)c2cccc(Cl)c2)C1 (stereo not drawn) [Compound 84] | -5.29% | 11% | 59.7% | 102% | 114% | 6.31 µM | 102% | 
CC(C)(C)c1ccc(C(=O)OCC(=O)Nc2sc3c(c2C#N)CCC3)cc1 [Compound 85] | 3.25% | 13.3% | 71.6% | 101% | 103% | 5.01 µM | 101% | 
Cc1ccc(C2=C(CC(=O)O)C(=O)CC2)cc1 [Compound 86] | 10.4% | 28.9% | 57.4% | 80.4% | 94.7% | 4.47 µM | 80.4% | 
CN(C)c1ccnc2sc(C(N)=O)c(N)c12 [Compound 87] | 20.9% | 26.5% | 69.1% | 86.5% | 87.8% |  | 86.5% | 
C[C@H]1CNC(=O)c2c(C(=O)Nc3ccc(CNC(=O)OC(C)(C)C)cc3)ncn21 [Compound 88] | 12.6% | 21.8% | 50.5% | 81.8% | 98.4% | 8.91 µM | 81.8% | 
CCCN(C(=O)c1ccc(S(=O)(=O)N2CCCC2)cc1)C1CCS(=O)(=O)C1 (stereo not drawn) [Compound 89] | -9.99% | -0.297% | 45.6% | 74.1% | 75.3% | 5.01 µM | 74.1% | 
CN(CC(=O)Nc1cccc(F)c1)C(=O)c1ccc(-c2ccc(Cl)cc2)o1 [Compound 90] | 2.83% | 8.12% | 27.2% | 146% | 146% | 11.2 µM | 146% | 
Cc1ccc(S(=O)(=O)N2CN(CC3CCCO3)c3nc4ccccc4nc32)c(C)c1 (stereo not drawn) [Compound 91] | -19.2% | -13.3% | 6.57% | 121% | 122% | 11.2 µM | 121% | 43
COc1ccc(C(=O)N/C(=C/c2cccnc2)C(=O)N2CCN(C)CC2)cc1OC [Compound 92] | 2.57% | 13.3% | 54.9% | 75% | 77% | 4.47 µM | 75% | 
COc1cccc(C(=O)NCC(=O)N2CCC3(CC2)NCCc2[nH]cnc23)c1 [Compound 93] | -3.47% | 0% | 36.3% | 102% | 114% | 11.2 µM | 102% | 
COc1ccc(-c2csc3ncnc(N4CCN(c5ccccc5[N+](=O)[O-])CC4)c23)cc1 [Compound 94] | 11.5% | 8.66% | 36.5% | 138% | 138% | 10 µM | 138% | 43
O=C(COc1cc2oc(=O)c3c(c2cc1Cl)CCCC3)NC[C@H]1CC[C@H](C(=O)O)CC1 [Compound 95] | -12.4% | 3.06% | 36.2% | 67.9% | 83.4% | 7.08 µM | 67.9% | 
COCCn1c(=N)c(S(=O)(=O)c2ccc(Br)cc2)cc2c(=O)n3ccccc3nc21 [Compound 96] | -7.89% | 1.1% | 54.5% | 73.2% | 75% | 4.47 µM | 73.2% | 
CN(Cc1c(C(=O)N/N=C/c2cccc(F)c2)nnn1-c1nonc1N)c1ccccc1 [Compound 97] | 1.91% | 1.37% | 59.1% | 79.3% | 79.8% | 5.62 µM | 79.3% | 
COc1ccc(N(CC(=O)NCCC(C)C)C(=O)c2snc(C(=O)NC3CCCCC3)c2N)c(OC)c1 [Compound 98] | -0.0399% | 0.105% | 28.9% | 125% | 126% | 10 µM | 125% | 
CC1(C)CC(O)=C/C(=N\c2ccc(C(=O)O)c(O)c2)C1 [Compound 99] | 0.744% | 1.73% | 44.4% | 114% | 121% | 10 µM | 114% | 
COC(=O)c1ccccc1NC(=O)c1cc[n+]([O-])cc1 [Compound 100] | -24.5% | -4.99% | 30.1% | 56.3% | 64% | 3.98 µM | 56.3% | 
CN(C)C1(C/N=C/c2cc(Cl)cc([N+](=O)[O-])c2O)CCCCC1 [Compound 101] | -14.2% | -11.6% | 43.3% | 104% | 116% | 8.91 µM | 104% | 43
CS(=O)(=O)Cc1cccc(C(=O)NN(c2ccccc2)c2ccccc2)c1 [Compound 102] | 10.3% | 11.3% | 24.3% | 159% | 160% | 12.6 µM | 159% | 
COc1ccccc1CNS(=O)(=O)c1ccc(Cl)s1 [Compound 103] | -22% | -16.4% | 50.2% | 91.3% | 96.9% | 6.31 µM | 91.3% | 
O=C(NCCc1ccccc1)C1CCC(=O)N1C1CCCC1 (stereo not drawn) [Compound 104] | -6.49% | -11.7% | 27.3% | 127% | 128% | 10 µM | 127% | 
NS(=O)(=O)c1ccc(NC(=O)c2cc(-c3ccccc3O)[nH]n2)cc1 [Compound 105] | 15.4% | 17.9% | 44.2% | 112% | 113% | 10 µM | 112% | 
